PubChem BioAssay (NCI)
Values joined by “and” are separate entries in the source; they are usually repeats but may differ in a detail not shown here. Equal entries are not always repeated.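 Exposure lasted 48 hours, with cells grown in 96-well plates and compounds tested at five concentrations. GI50: concentration for 50% inhibition of growth. TGI denotes the concentration required for complete inhibition of growth.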

Assays:
Assay in all cases: growth of human tumour cells (NCI), 48 h
[1] = test system: OVCAR-3 ovarian
[2] = test system: A498 renal
[3] = test system: U251 CNS
[4] = test system: K-562 leukemia
[5] = test system: HOP-62 NSCLC
[6] = test system: OVCAR-4 ovarian
[7] = test system: TK-10 renal
[8] = test system: IGROV1 ovarian
[9] = test system: SK-OV-3 ovarian
[10] = test system: SR leukemia
[11] = test system: NCI-H460 lung
[12] = test system: MDA-MB-231 breast
[13] = test system: SNB-19 CNS
[14] = test system: NCI-H23 lung
[15] = test system: T-47D breast
[16] = test system: SK-MEL-28 melanoma
[17] = test system: SF-295 CNS
[18] = test system: M14 melanoma
[19] = test system: MOLT-4 leukemia
[20] = test system: HOP-92 NSCLC
[21] = test system: OVCAR-5 ovarian
[22] = test system: HCT-15 colon
[23] = test system: MALME-3M melanoma
[24] = test system: OVCAR-8 ovarian
[25] = test system: LOX IMVI melanoma
[26] = test system: SK-MEL-5 melanoma
[27] = test system: EKVX NSCLC
[28] = test system: 786-0 renal
[29] = test system: SW-620 colon
[30] = test system: MDA-MB-435
[31] = test system: NCI-H522 lung
[32] = test system: MDA-N
[33] = test system: SNB-75 CNS
[34] = test system: A549 NSCLC
[35] = test system: HT29 colon
[36] = test system: UO-31 renal
[37] = test system: HCC-2998 colon
[38] = test system: SN12C renal
[39] = test system: DU-145 prostate
[40] = test system: SF-268 CNS
[41] = test system: PC-3 prostate
[42] = test system: RPMI-8226 leukemia
[43] = test system: CAKI-1 renal
[44] = test system: SF-539 CNS
[45] = test system: CCRF-CEM leukemia
[46] = test system: UACC-62 melanoma
[47] = test system: BT-549 breast
[48] = test system: UACC-257 melanoma
[49] = test system: NCI/ADR-RES ovarian
[50] = test system: ACHN renal
[51] = test system: RXF 393 renal
[52] = test system: HS 578T breast
[53] = test system: NCI-H226 lung
[54] = test system: HL-60(TB) leukemia
[55] = test system: KM12 colon
[56] = test system: MCF7 breast
[57] = test system: COLO 205 colon
[58] = test system: HCT-116 colon
[59] = test system: SK-MEL-2 melanoma

**Q.** `CCC(C)C1NC(=O)C(NC(=O)C(CC(C)C)N(C)C(=O)[C@@H]2C=CCN2C(=O)[C@H](C)O)C(C)OC(=O)[C@H](Cc2ccc(OC)cc2)N(C)C(=O)[C@@H]2CCCN2C(=O)[C@H](CC(C)C)NC(=O)C(C)C(=O)[C@H](C(C)C)OC(=O)CC1O` (stereo partly drawn) was tested. Which TGI [1] did it give?
**A.** The TGI was 0.0282 µM and 0.0112 µM.

**Q.** What about the TGI [2] of the same compound?
**A.** The TGI was 0.0471 µM and 0.0481 µM.

**Q.** And the TGI [3]?
**A.** Its TGI is 0.018 µM.

**Q.** And the TGI [4]?
**A.** Its TGI is 0.0116 µM and 0.0104 µM.

**Q.** What about the TGI [5] of the same compound?
**A.** Its TGI is 0.0177 µM.

**Q.** What about the TGI [6] of the same compound?
**A.** Its TGI is 0.00881 µM and 0.0112 µM.

**Q.** What about the TGI [7] of the same compound?
**A.** The TGI was 0.0682 µM and 0.0246 µM.

**Q.** What about the TGI [8] of the same compound?
**A.** The TGI was 0.0193 µM.

**Q.** And the TGI [9]?
**A.** Its TGI is 0.0317 µM.

**Q.** And the TGI [10]?
**A.** The TGI was over 100 µM.

**Q.** And the TGI [11]?
**A.** The TGI was 0.0125 µM and 0.0227 µM.

**Q.** What about the TGI [12] of the same compound?
**A.** Its TGI is 0.0351 µM and 0.0943 µM.

**Q.** What about the TGI [13] of the same compound?
**A.** Its TGI is 0.0556 µM.

**Q.** What about the TGI [14] of the same compound?
**A.** The TGI was 0.00917 µM.

**Q.** And the TGI [15]?
**A.** Its TGI is 0.0109 µM.

**Q.** What about the TGI [16] of the same compound?
**A.** The TGI was 0.00567 µM.

**Q.** And the TGI [17]?
**A.** The TGI was 0.02 µM.

**Q.** And the TGI [18]?
**A.** The TGI was 0.0123 µM.

**Q.** And the TGI [19]?
**A.** The TGI was 0.00805 µM.

**Q.** What about the TGI [20] of the same compound?
**A.** Its TGI is 0.0382 µM.

**Q.** What about the TGI [21] of the same compound?
**A.** The TGI was 0.0738 µM.

**Q.** What about the TGI [22] of the same compound?
**A.** Its TGI is 0.111 µM.

**Q.** And the TGI [23]?
**A.** The TGI was 0.0134 µM.

**Q.** And the TGI [24]?
**A.** The TGI was 0.0386 µM.

**Q.** What about the TGI [25] of the same compound?
**A.** Its TGI is 0.0105 µM.

**Q.** What about the TGI [26] of the same compound?
**A.** The TGI was 0.0102 µM.

**Q.** What about the TGI [27] of the same compound?
**A.** The TGI was 0.0345 µM.

**Q.** And the TGI [28]?
**A.** Its TGI is 0.0135 µM and 0.0105 µM.

**Q.** What about the TGI [29] of the same compound?
**A.** Its TGI is 0.0545 µM.

**Q.** And the TGI [30]?
**A.** The TGI was 0.0132 µM.

**Q.** And the TGI [31]?
**A.** Its TGI is 0.0108 µM.

**Q.** And the TGI [32]?
**A.** Its TGI is 0.0188 µM.

**Q.** And the TGI [33]?
**A.** Its TGI is 0.0126 µM.

**Q.** What about the TGI [34] of the same compound?
**A.** Its TGI is 0.0131 µM.

**Q.** And the TGI [35]?
**A.** The TGI was 0.0335 µM and 0.0155 µM.

**Q.** What about the TGI [36] of the same compound?
**A.** Its TGI is 0.0626 µM and 0.406 µM.

**Q.** What about the TGI [37] of the same compound?
**A.** The TGI was 0.0147 µM.

**Q.** And the TGI [38]?
**A.** Its TGI is 0.015 µM.

**Q.** What about the TGI [39] of the same compound?
**A.** The TGI was 0.0317 µM.

**Q.** And the TGI [40]?
**A.** Its TGI is 0.0109 µM and 0.0186 µM.

**Q.** And the TGI [41]?
**A.** The TGI was 0.0271 µM.

**Q.** What about the TGI [42] of the same compound?
**A.** Its TGI is 0.0201 µM.

**Q.** What about the TGI [43] of the same compound?
**A.** The TGI was 0.16 µM.

**Q.** What about the TGI [44] of the same compound?
**A.** Its TGI is 0.00467 µM.

**Q.** What about the TGI [45] of the same compound?
**A.** Its TGI is 0.0114 µM.

**Q.** And the TGI [46]?
**A.** Its TGI is 0.005 µM.

**Q.** What about the TGI [47] of the same compound?
**A.** Its TGI is 0.0153 µM.

**Q.** What about the TGI [48] of the same compound?
**A.** Its TGI is 0.0156 µM and 0.0134 µM.

**Q.** What about the GI50 [49] of the same compound?
**A.** The GI50 was 0.0594 µM.

**Q.** What about the TGI [49] of the same compound?
**A.** Its TGI is 11.7 µM.

**Q.** And the TGI [50]?
**A.** Its TGI is 0.0513 µM.

**Q.** How did the TGI [32] turn out when `[NH-]c1ncnc2c1N=C[N+]2=CC=CCO` was run?
**A.** The TGI was over 100 µM.

**Q.** What does the source list for `CC(C)(C(=O)NCC(F)(F)C(F)(F)F)C(=O)N[C@@H]1C(=O)Nc2ccccc2-c2ccccc21`?
**A.** GI50 [1]: 68.8 µM; TGI [1]: > 100 µM; GI50 [2]: 50.3 µM; TGI [2]: > 100 µM; GI50 [3]: > 78.5 µM; TGI [3]: > 100 µM; GI50 [4]: > 67.3 µM; TGI [4]: > 100 µM; GI50 [5]: > 93.4 µM; TGI [5]: > 100 µM; GI50 [6]: 34.1 µM; TGI [6]: > 100 µM; GI50 [7]: > 100 µM; TGI [7]: > 100 µM; GI50 [8]: > 71.6 µM; TGI [8]: > 100 µM; GI50 [9]: 99 µM; TGI [9]: > 100 µM; GI50 [10]: 35.5 µM; TGI [10]: 99 µM; GI50 [11]: 52.4 µM; TGI [11]: > 100 µM; GI50 [12]: 44 µM; TGI [12]: > 100 µM; GI50 [13]: 62.3 µM; TGI [13]: > 100 µM; GI50 [14]: > 67 µM; TGI [14]: > 100 µM; GI50 [15]: 23.7 µM; TGI [15]: 99 µM; GI50 [16]: 42 µM; TGI [16]: > 100 µM; GI50 [51]: 20 µM; TGI [51]: > 78.7 µM; GI50 [17]: 43.7 µM; TGI [17]: > 100 µM; GI50 [18]: 38.8 µM; TGI [18]: > 100 µM; GI50 [19]: 40.3 µM; TGI [19]: > 100 µM; GI50 [20]: 39.2 µM; TGI [20]: > 100 µM; GI50 [21]: 97 µM; TGI [21]: > 100 µM; GI50 [22]: 51.3 µM; TGI [22]: > 100 µM; GI50 [23]: > 61.9 µM; TGI [23]: > 100 µM; GI50 [24]: 55.6 µM; TGI [24]: > 100 µM; GI50 [25]: > 59.2 µM; TGI [25]: > 100 µM; GI50 [26]: 16 µM; TGI [26]: 37.5 µM; GI50 [27]: 52.7 µM; TGI [27]: > 100 µM; GI50 [28]: > 64.3 µM; TGI [28]: > 100 µM; GI50 [29]: > 70.2 µM; TGI [29]: > 100 µM; GI50 [30]: > 63.7 µM; TGI [30]: > 100 µM; GI50 [52]: > 56 µM; TGI [52]: > 100 µM; GI50 [53]: 30.1 µM; TGI [53]: > 100 µM; GI50 [54]: 37.5 µM; TGI [54]: > 100 µM; GI50 [31]: 65.1 µM; TGI [31]: > 100 µM; GI50 [55]: 73.3 µM; TGI [55]: > 100 µM; GI50 [56]: 27.3 µM; TGI [56]: > 100 µM; GI50 [57]: 34 µM; TGI [57]: > 100 µM; GI50 [33]: 21.6 µM; TGI [33]: > 100 µM; GI50 [58]: 46.1 µM; TGI [58]: > 100 µM; GI50 [34]: 51.9 µM; TGI [34]: > 100 µM; GI50 [35]: 39.7 µM; TGI [35]: > 100 µM; GI50 [36]: 32.3 µM; TGI [36]: > 100 µM; GI50 [37]: 40.6 µM; TGI [37]: > 100 µM; GI50 [59]: > 57.2 µM; TGI [59]: > 100 µM; GI50 [38]: > 85 µM; TGI [38]: > 100 µM; GI50 [39]: > 87.2 µM; TGI [39]: > 100 µM; GI50 [40]: 67.5 µM; TGI [40]: > 100 µM; GI50 [41]: 50.8 µM; TGI [41]: > 100 µM; GI50 [42]: 54.5 µM; TGI [42]: > 100 µM; GI50 [43]: 45.4 µM; TGI [43]: > 100 µM; GI50 [44]: > 84.8 µM; TGI [44]: > 100 µM; GI50 [45]: 45.3 µM; TGI [45]: > 100 µM; GI50 [46]: 29.2 µM; TGI [46]: > 100 µM; GI50 [47]: 36.3 µM; TGI [47]: > 100 µM; GI50 [48]: 47.3 µM; TGI [48]: > 100 µM; GI50 [49]: 42.4 µM; TGI [49]: > 100 µM; GI50 [50]: 50.4 µM; TGI [50]: > 100 µM
